Patent US20220274947A1, “NOVEL HETEROARYL-TRIAZOLE COMPOUNDS AS PESTICIDES” (Bayer Aktiengesellschaft, priority 2019, published 2022)

Experiments:
Assay type in all cases: in vivo
Spodoptera frugiperda = Spodoptera frugiperda spray test; settings: in Zea mays, 168 h, read-out: activity (mortality)
Summary of the method: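 Maize leaf sections were sprayed with compound formulated in acetone/DMF and diluted in water containing 1000 ppm emulsifier. Dried leaves were infested with fall armyworm larvae, and percent mortality was scored after 7 days.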

Myzus persicae = Myzus persicae oral test; settings: 120 h, read-out: activity (mortality)
Summary of the method: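 Percent mortality was recorded at day 5, where 0% means no aphids killed. Compound prepared from an acetone concentrate diluted in water and combined with IPL41 medium containing sugar was offered to mixed-stage green peach aphids, which sucked it through a parafilm seal.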

Rhipicephalus microplus [1] = assay: Rhipicephalus (Boophilus) microplus injection test (BOOPMI Inj); settings: 168 h, injection into adult engorged female ticks, egg deposition after 7 days, read-out: activity (efficacy: 100% means all eggs are infertile); for pest or weed control at 0.004 mg: application rate 4 μg/tick; for pest or weed control at 0.02 mg: application rate 20 μg/tick
Summary of the method: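 Five engorged adult female R. microplus ticks injected into the abdomen with 1 μL of compound diluted in DMSO, then kept in a climate chamber. Fertile egg deposition checked after 7 days; eggs without visible fertility held until hatching at about 42 days. Efficacy: 100% = all eggs infertile, 0% = all fertile.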

Ctenocephalides felis [2] = assay: Ctenocephalides felis oral test (CTECFE Oral); settings: 48 h, read-out: activity (mortality)
Summary of the method: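 About 20 unfed adult cat fleas fed through parafilm on cattle blood containing compound (DMSO concentrate diluted in blood to the desired concentration). Blood held at 37 °C, fleas at room temperature. Mortality (%) scored after 2 days.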

Nezara viridula = Nezara viridula spray test; settings: in Hordeum vulgare, 96 h, application rate 500 g/ha, barley plants, larvae, after 4 days
Summary of the method: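 Barley plants infested with N. viridula larvae were sprayed with compound in acetone/DMF diluted with water containing 1000 ppm alkylarylpolyglycol ether emulsifier. Mortality (%) was scored after 4 days; 100% means all bugs killed, 0% none.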

Diabrotica balteata = Diabrotica balteata spray test; settings: 168 h, wheat seeds, larvae, after 7 days, read-out: activity (efficacy: 100% means all seedlings have grown up like in the untreated, uninfected control); for pest or weed control at 32 µg/disc, 100 g/ha: application rate 100 g/ha (=32 μg/well); for pest or weed control at 160 µg/disc, 500 g/ha: application rate 500 g/ha (=160 μg/well)
Summary of the method: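 Wheat seedlings, germinated 1 day on agar, were sprayed with compound in acetone/DMF diluted in water containing emulsifier, then infested with 10-20 Diabrotica balteata larvae. After 7 days efficacy in % was scored: 100% means seedlings grew like the untreated, uninfected control; 0% means none grew.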

Rhipicephalus microplus [3] = assay: Rhipicephalus (Boophilus) microplus in-vitro contact test, larval cattle tick, strain Parkhurst (BOOPMI Cont); settings: application rate 5 μg/cm^2 (=500 g/ha), tick larvae, after 48 hours, read-out: activity (efficacy: 100% means all larvae are dead or moribund)
Summary of the method: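 Acetone solutions dried onto glass tube walls (900 ppm giving 5 μg/cm^2); 20-50 pyrethroid-resistant Parkhurst larvae added per tube and held 48 h at 27° C., 85% relative humidity. Efficacy scored by negative geotaxis as % dead or moribund larvae.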

Rhipicephalus microplus [4] = assay: Rhipicephalus (Boophilus) microplus dip test (BOOPMI Dip); settings: 168 h, application rate 100 ppm, engorged adult female ticks, after 7 days, read-out: activity (efficacy: 100% means all eggs are infertile)
Experimental: Rhipicephalus (Boophilus) Microplus—Dip Test (BOOPMI Dip)
Test Animal: cattle ticks (Rhipicephalus microplus) strain parkhurst, SP-resistant Solvent: dimethyl sulfoxide
To produce a suitable preparation of active compound, 10 mg of active compound are dissolved in 0.5 mL solvent, and the concentrate is diluted with water to the desired concentration.
This compound solution is pipetted into tubes. 8-10 engorged, adult, female cattle ticks (Rhipicephalus microplus) are placed in perforated tubes. These tubes are immersed in the aqueous compound solution until the ticks are completely moistened. After the liquid has drained off, the ticks are transferred to a filter paper in a plastic tray and stored in a climate chamber.
After 7 days egg deposition of fertile eggs is monitored. Eggs where fertility is not visible are stored in a climate chamber till hatching after about 42 days. An efficacy of 100% means all eggs are infertile; 0% means all eggs are fertile.

Rhipicephalus sanguineus = Rhipicephalus sanguineus in-vitro contact test, adult brown dog ticks (RHIPSA Cont); settings: 48 h, after 48 hours, read-out: activity (efficacy: 100% means all ticks are dead or moribund); for pest or weed control at 1 µg/cm2, 100 g/ha: application rate 1 μg/cm^2 (=100 g/ha)
Summary of the method: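 Compound in acetone (9 mg/mL stock, diluted to test concentration) is coated onto inner walls of glass tubes by rotation for 2 h at 30 rpm. Efficacy is read after 48 h: ticks are tapped down and held on a 45-50° C plate for at most 5 min, and immotile or uncoordinated ones that fail to climb away count as dead or moribund.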

Ctenocephalides felis [5] = assay: Ctenocephalides felis in-vitro contact test, adult cat flea (CTECFE Cont); settings: application rate 5 μg/cm^2 (=500 g/ha), adult cat fleas, after 48 hours, read-out: activity (efficacy: 100% means all fleas are dead or moribund)
Summary of the method: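 Acetone solutions coated on glass tube inner walls (900 ppm giving 5 μg/cm^2), then 5-10 adult fleas added and held 48 h at room temperature. Fleas unable to escape a 45-50° C. heating plate within 5 min scored dead or moribund; efficacy = % dead/moribund.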

[6] = tested on: Aedes aegypti strain MONHEIM; assay: Aedes aegypti test (AEDSAE surface treatment & contact assay); settings: surface concentration 20 mg/m^2, glazed tile, exposure 30 minutes, 24 hours after contact, read-out: efficacy (mortality)
Summary of the method: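 Compound dissolved in acetone (2 mg/ml) with 2000 ppm rapeseed oil methyl ester, pipetted onto glazed tile and dried. Adult mosquitoes exposed on the surface for 30 min; percent mortality scored 24 h after contact.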

Nilaparvata lugens = Nilaparvata lugens spray test; settings: 96 h, application rate 100 g/ha, rice plants, after 4 days
Experimental: Nilaparvata lugens—Spray Test Solvent: 78.0 parts by weight of acetone • • 1.5 parts by weight of dimethylformamide Emulsifier: alkylarylpolyglycol ether
To produce a suitable preparation of active compound, 1 part by weight of active compound is mixed with the stated amount of solvents and is diluted with water, containing an emulsifier concentration of 1000 ppm, to the desired concentration. Further test concentrations are prepared by dilution with emulsifier containing water.
Rice plants (Oryza sativa) are sprayed with a preparation of the active ingredient of the desired concentration and the plants are infested with the brown planthopper (Nilaparvata lugens).
After 4 days mortality in % is determined. 100% means all planthoppers have been killed and 0% means none of the planthoppers have been killed.

| SMILES | mortality at 100 g/ha (Spodoptera frugiperda) | mortality at 500 g/ha (Spodoptera frugiperda) | mortality at 4 ppm (Myzus persicae) | pest or weed control at 0.004 mg (Rhipicephalus microplus [1]) | pest or weed control at 0.02 mg (Rhipicephalus microplus [1]) | mortality at 100 ppm (Ctenocephalides felis [2]) | mortality at 500 g/ha (Nezara viridula) | pest or weed control at 32 µg/disc, 100 g/ha (Diabrotica balteata) | pest or weed control at 160 µg/disc, 500 g/ha (Diabrotica balteata) | pest or weed control at 5 µg/cm2 (Rhipicephalus microplus [3]) | pest or weed control at 100 ppm (Rhipicephalus microplus [4]) | pest or weed control at 1 µg/cm2, 100 g/ha (Rhipicephalus sanguineus) | pest or weed control at 5 µg/cm2 (Ctenocephalides felis [5]) | mortality at 20 mg/m2 [6] | mortality at 100 g/ha (Nilaparvata lugens) | pest or weed control at 5 µg/cm2, 500 g/ha (Rhipicephalus sanguineus; application rate 5 μg/cm^2 (=500 g/ha)) |
| --- | --- | --- | --- | --- | --- | --- | --- | --- | --- | --- | --- | --- | --- | --- | --- | --- |
| CC(C)c1nc([C@H](C)NC(=O)c2cc(C(F)(F)F)cc(C(F)(F)F)c2)n(-c2ccc(C#N)cn2)n1 [I-7] | 100% | 83% | 100% | 100% | 100% | 100% | 100% | 100% | 100% | 100% | 100% | 100% | – | – | – | – |
| CC(C)c1nc([C@H](C)NC(=O)c2cc(Cl)cc(C(F)(F)F)c2)n(-c2ccc(C#N)cn2)n1 [I-8] | 100% | 100% | – | 100% | 100% | – | – | 100% | 100% | 80% | 100% | – | 80% | 80 to 100% | – | – |
| CC(C)c1nc([C@H](C)NC(=O)c2cc(Br)cc(OC(F)(F)F)c2)n(-c2ccc(C#N)cn2)n1 [I-26] | 100% | – | – | 100% | 100% | – | – | 100% | – | 100% | – | 80% | – | 80 to 100% | 90% | 100% |
